From patent publication US20260285850A1, “SUBSTITUTED OXAZOLIDINONES AND IMIDAZOLINONES AS HERBICIDES” (FMC CORPORATION, priority 2023, published 2026)

Tests used:
Type in all cases: in vivo
[1] = system: barnyardgrass (Echinochloa crus-galli); assay: Test A preemergence soil spray, visual injury rating 0-100; conditions: 10 days, 0 = no effect, 100 = complete control
How it was run: (§1)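 Grow plants in loam soil blended with sand. Apply formulated compound (non-phytotoxic solvent, surfactant) as a directed soil spray before emergence, or to plants at the one- to two-leaf stage after emergence. Hold in greenhouse 10 days, then rate injury visually versus untreated controls on a 0-100 scale.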

[2] = system: blackgrass (Alopecurus myosuroides); assay: as above; conditions: 10 days, 0 = no effect, 100 = complete control
How it was run: as §1

corn (Zea mays) [3] = assay: as above; conditions: 10 days, 0 = no effect, 100 = complete control
How it was run: as §1

[4] = system: green foxtail (Setaria viridis); assay: as above; conditions: 10 days, 0 = no effect, 100 = complete control
How it was run: as §1

kochia (Bassia scoparia) [5] = assay: as above; conditions: 10 days, 0 = no effect, 100 = complete control
How it was run: as §1

[6] = system: oat, wild (wild oat, Avena fatua); assay: as above; conditions: 10 days, 0 = no effect, 100 = complete control
How it was run: as §1

[7] = system: palmer (palmer amaranth, palmer pigweed, Amaranthus palmeri); assay: as above; conditions: 10 days, 0 = no effect, 100 = complete control
How it was run: as §1

[8] = system: ragweed (common ragweed, Ambrosia artemisiifolia); assay: as above; conditions: 10 days, 0 = no effect, 100 = complete control
How it was run: as §1

[9] = system: ryegrass, Italian (italian ryegrass, Lolium multiflorum); assay: as above; conditions: 10 days, 0 = no effect, 100 = complete control
How it was run: as §1

soybean (Glycine max) [10] = assay: as above; conditions: 10 days, 0 = no effect, 100 = complete control
How it was run: as §1

[11] = system: wheat (Triticum aestivum); assay: as above; conditions: 10 days, 0 = no effect, 100 = complete control
How it was run: as §1

[12] = system: barnyardgrass (Echinochloa crus-galli); assay: Test A postemergence application, visual injury rating 0-100; conditions: 10 days
How it was run: as §1

[13] = system: blackgrass (Alopecurus myosuroides); assay: as above; conditions: 10 days
How it was run: as §1

corn (Zea mays) [14] = assay: as above; conditions: 10 days
How it was run: as §1

[15] = system: galium (catchweed bedstraw, Galium aparine); assay: as above; conditions: 10 days
How it was run: as §1

[16] = system: green foxtail (Setaria viridis); assay: as above; conditions: 10 days
How it was run: as §1

[17] = system: horseweed (Erigeron canadensis); assay: as above; conditions: 10 days
How it was run: as §1

kochia (Bassia scoparia) [18] = assay: as above; conditions: 10 days
How it was run: as §1

[19] = system: oat, wild (wild oat, Avena fatua); assay: as above; conditions: 10 days
How it was run: as §1

[20] = system: palmer (palmer amaranth, palmer pigweed, Amaranthus palmeri); assay: as above; conditions: 10 days
How it was run: as §1

[21] = system: ragweed (common ragweed, Ambrosia artemisiifolia); assay: as above; conditions: 10 days
How it was run: as §1

[22] = system: ryegrass, Italian (italian ryegrass, Lolium multiflorum); assay: as above; conditions: 10 days
How it was run: as §1

soybean (Glycine max) [23] = assay: as above; conditions: 10 days
How it was run: as §1

[24] = system: wheat (Triticum aestivum); assay: as above; conditions: 10 days
How it was run: as §1

[25] = system: barnyardgrass (Echinochloa crusgalli); assay: Test B flooded paddy test, visual plant response rating 0-100; conditions: 250 g ai/ha, Flood, applied to paddy water, evaluated after 13 days
How it was run: (§2)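 Visual scores versus untreated controls were recorded 13 days after treatment of greenhouse-held plants. At the 2-leaf stage, pots were flooded 3 cm above the soil surface and compounds added straight to the water.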

[26] = system: ducksalad (Heteranthera limosa); assay: as above; conditions: 250 g ai/ha, Flood, applied to paddy water, evaluated after 13 days
How it was run: as §2

rice (Oryza sativa) = assay: as above; conditions: 250 g ai/ha, Flood, applied to paddy water, evaluated after 13 days
How it was run: as §2

[27] = system: sedge, umbrella (small-flower umbrella sedge, Cyperus difformis); assay: as above; conditions: 250 g ai/ha, Flood, applied to paddy water, evaluated after 13 days
How it was run: as §2

[28] = 31 g ai/ha, postemergence, 0 = no effect, 100 = complete control
[29] = Postemergence, 125 g ai/ha, 0 is no effect, 100 is complete control

## COC(=O)C1=CCC(NC(=O)C2(C)CN(c3cc(F)cc(F)c3)C(=O)O2)C1 (single isomer, unassigned) [Compound 20]
[1]; 31 g ai/ha
  Barnyardgrass plant response rating (0-100): 0
[1]; 125 g ai/ha
  Barnyardgrass plant response rating (0 to 100 scale): 0
[2]; 31 g ai/ha
  Blackgrass plant response rating (0-100): 0
[2]; 125 g ai/ha
  Blackgrass plant response rating (0 to 100 scale): 0
Corn (Zea mays) [3]; 31 g ai/ha
  Corn plant response rating (0-100): 0
Corn (Zea mays) [3]; 125 g ai/ha
  Corn plant response rating (0 to 100 scale): 0
[4]; 31 g ai/ha
  Foxtail, Green plant response rating (0-100): 0
[4]; 125 g ai/ha
  Foxtail, Green plant response rating (0 to 100 scale): 0
Kochia (Bassia scoparia) [5]; 31 g ai/ha
  Kochia plant response rating (0-100): 0
Kochia (Bassia scoparia) [5]; 125 g ai/ha
  Kochia plant response rating (0 to 100 scale): 0
[6]; 31 g ai/ha
  Oat, Wild plant response rating (0-100): 0
[6]; 125 g ai/ha
  Oat, Wild plant response rating (0 to 100 scale): 0
[7]; 31 g ai/ha
  Amaranth, Palmer plant response rating (0-100): 0
[7]; 125 g ai/ha
  Amaranth, Palmer plant response rating (0 to 100 scale): 0
[8]; 31 g ai/ha
  Ragweed plant response rating (0-100): 30
[8]; 125 g ai/ha
  Ragweed plant response rating (0 to 100 scale): 0
[9]; 31 g ai/ha
  Ryegrass, Italian plant response rating (0-100): 0
[9]; 125 g ai/ha
  Ryegrass, Italian plant response rating (0 to 100 scale): 20
Soybean (Glycine max) [10]; 31 g ai/ha
  Soybean plant response rating (0-100): 20
Soybean (Glycine max) [10]; 125 g ai/ha
  Soybean plant response rating (0 to 100 scale): 60
[11]; 31 g ai/ha
  Wheat plant response rating (0-100): 0
[11]; 125 g ai/ha
  Wheat plant response rating (0 to 100 scale): 20
[12]; [28]
  Barnyardgrass plant response rating (0-100): 0
[12]; [29]
  Barnyardgrass plant response rating (0 to 100 scale): 90
[13]; [28]
  Blackgrass plant response rating (0-100): 0
[13]; [29]
  Blackgrass plant response rating (0 to 100 scale): 60
Corn (Zea mays) [14]; [28]
  Corn plant response rating (0-100): 40
Corn (Zea mays) [14]; [29]
  Corn plant response rating (0 to 100 scale): 100
[15]; [28]
  Galium plant response rating (0-100): 20
[15]; [29]
  Galium plant response rating (0 to 100 scale): 80
[16]; [28]
  Foxtail, Green plant response rating (0-100): 20
[16]; [29]
  Foxtail, Green plant response rating (0 to 100 scale): 80
[17]; [28]
  Horseweed plant response rating (0-100): 0
[17]; [29]
  Horseweed plant response rating (0 to 100 scale): 0
Kochia (Bassia scoparia) [18]; [28]
  Kochia plant response rating (0-100): 0
Kochia (Bassia scoparia) [18]; [29]
  Kochia plant response rating (0 to 100 scale): 50
[19]; [28]
  Oat, Wild plant response rating (0-100): 20
[19]; [29]
  Oat, Wild plant response rating (0 to 100 scale): 60
[20]; [28]
  Amaranth, Palmer plant response rating (0-100): 0
[20]; [29]
  Amaranth, Palmer / Pigweed, Palmer plant response rating (0 to 100 scale): 30
[21]; [28]
  Ragweed plant response rating (0-100): 0
[21]; [29]
  Ragweed plant response rating (0 to 100 scale): 30
[22]; [28]
  Ryegrass, Italian plant response rating (0-100): 0
[22]; [29]
  Ryegrass, Italian plant response rating (0 to 100 scale): 80
Soybean (Glycine max) [23]; [28]
  Soybean plant response rating (0-100): 50
Soybean (Glycine max) [23]; [29]
  Soybean plant response rating (0 to 100 scale): 90
[24]; [28]
  Wheat plant response rating (0-100): 0
[24]; [29]
  Wheat plant response rating (0 to 100 scale): 80
[25]
  Plant response rating, Barnyardgrass (0 to 100 scale, 0 is no effect and 100 is complete control): 0
[26]
  Plant response rating, Ducksalad (0 to 100 scale, 0 is no effect and 100 is complete control): 0
Rice (Oryza sativa)
  Plant response rating, Rice (0 to 100 scale, 0 is no effect and 100 is complete control): 0
[27]
  Plant response rating, Sedge, Umbrella (0 to 100 scale, 0 is no effect and 100 is complete control): 0
